Assay results published in patent publication US20240299354A1, “COMPOSITIONS AND METHODS FOR TREATING CANCER” (The Regents of the University of Michigan, priority 2021, published 2024).

Legend:
T47D cells = experiment: perforin and granzyme B-induced tumor cell death; type: cell-based, human; conditions: FOXO1 knocked down T47D cells, FIG. 4h
Description: Tumor cells were exposed to hypoxia for 24 hours, or the indicated conditions. Then, tumor cells were co-incubated with perform (APB317Hu01, Cloud-Clone) and granzyme B (2906-SE-010, R&D system) for 10 minutes. PI (10 μg/ml) was added into the culture. PI^+ cells were measured by flow cytometry.

tumor cells [1] = conditions: reference 46; cited from earlier work
4T1 tumors [2] = experiment: therapeutic experiments in 4T1 tumor bearing BALB/cJ mice (tumor volume, tumor weight); type: in vivo, mouse; conditions: anti-PD-L1 and combination experiment
Description: Six to eight week-old female BALB/cJ mice were purchased from The Jackson Laboratory. The work was approved by the Institutional Animal Care and Use Committee at the University of Michigan. Slc6a14^−/− and Slc6a14^+/+ 4T1 tumor cells were inoculated into the fourth right mammary fat pad of BALB/cJ mice. Tumor size was measured every three days using calipers fitted with Vernier scale. Tumor volume (TV) was calculated using the formula: TV=0.5×L×W^2. In some cases, single cell suspensions were made from spleen and tumor tissues for immune phenotype and function analysis.
(§1) For the therapeutic experiments, 2*10^4 4T1 cells were inoculated into the fourth right mammary fat pad of BALB/cJ mice. On day 3, mice were treated (i.p.) with 200 μg of anti-PD-L1 (Bio X Cell) every 3 days, and/or with 250 μg of 4-HAP (i.p., 278564, Sigma) every other day, and/or α-MT (2 mg/mL, M8377, Sigma) in drinking water. Tumor diameters were measured using calipers.

tumor cells [3] = experiment: tumor receptivity to CTL-killing in vitro; type: cell-based; conditions: FIG. 9g as printed
4T1 tumors [4] = experiment: Myh9 and Mylk expression in 4T1 tumors of treated mice (real-time PCR, immunoblots); parameters: species or system mouse; conditions: in vivo, α-MT in drinking water
Description: as §1
Total RNA was extracted using TRIzol™ Reagent (ThermoFisher Scientific, USA). RNA was quantified by using NanoDrop spectrophotometer. Reverse transcription of the total cellular RNA was carried out using oligo (dT) primers and M-MLV reverse transcriptase (ThermoFisher Scientific, USA). RT-PCR primers are listed (Table 6). PCR was performed using QuantStudio 3 Real-time PCR system (Appliedbiosystems, Thermo Fisher Scientific, USA).
Cell lysates were prepared in RIPA buffer (Thermo Fisher Scientific, USA). The protein concentrations of cell lysates were determined by BCA protein assay kit (Thermo Scientific, USA). Equivalent amounts of total cellular protein were separated by SDS PAGE and transferred to PVDF membranes. The proteins were detected with specific antibodies (Table 7) and developed using ChemiDoc™ Imaging System (Bio-Rad, USA).

SLC6A14 = molecular target: T1, SLC6A14 (Homo sapiens, UniProt Q9UN76); conditions: reference 41; cited from earlier work
T1 sequence (Q9UN76 1-642): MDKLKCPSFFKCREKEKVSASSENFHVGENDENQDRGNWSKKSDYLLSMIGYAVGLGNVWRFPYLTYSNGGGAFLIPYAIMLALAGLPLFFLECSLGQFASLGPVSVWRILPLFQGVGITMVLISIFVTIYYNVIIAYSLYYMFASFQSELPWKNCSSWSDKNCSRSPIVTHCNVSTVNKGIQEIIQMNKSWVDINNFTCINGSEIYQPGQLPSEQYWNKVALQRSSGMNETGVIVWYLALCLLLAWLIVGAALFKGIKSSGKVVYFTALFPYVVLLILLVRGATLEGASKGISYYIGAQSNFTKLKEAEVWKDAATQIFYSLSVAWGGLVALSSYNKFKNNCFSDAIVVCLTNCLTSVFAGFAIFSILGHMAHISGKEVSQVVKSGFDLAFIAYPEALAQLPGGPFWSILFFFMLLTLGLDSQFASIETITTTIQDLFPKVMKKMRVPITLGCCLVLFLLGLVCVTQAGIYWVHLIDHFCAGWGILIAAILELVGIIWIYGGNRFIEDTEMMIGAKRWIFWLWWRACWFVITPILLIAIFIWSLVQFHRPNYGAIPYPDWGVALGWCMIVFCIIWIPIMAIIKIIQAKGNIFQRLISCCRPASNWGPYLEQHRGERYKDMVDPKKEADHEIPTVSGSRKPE

4T1 cells = experiment: 4T1 cell stiffness in vitro, Optical Tweezers Microscopy; type: cell-based, mouse; conditions: FIG. 8c
Description: OTM was established to measure tumor cell stiffness. A modular OTM (Thorlabs—OKBT) was adapted for axial cell indentation and force measurement. Briefly, a collimated laser beam (YLM-5-IPG Photonics—Yb fiber laser 1064 nm) was focused through a 100× objective (Nikon, N.A.=1.25, oil immersion) to produce a stable optical trap for 3 μm diameter silica microbeads (Bangs Laboratories) dispersed in the medium. During data acquisition, the cells were maintained at 37° C. by an integrated temperature controller unit (RS Components). The sample was imaged through the trapping objective and a tube lens by a CMOS camera (Thorlabs—DCC1240C). A microbead probe was individually trapped and positioned above the cell nucleus area of a selected cell using a piezoelectric NanoMax 3-axis flexure stage (Thorlabs). The position of the microbead in the trap was tracked by back focal plane interferometry method using the laser light scattered by the trapped bead. The trap height was in the range 3-6 μm from the cover-slip. The trap stiffness was calculated using the equipartition theorem and the power spectrum density methods considering the stiffness variations due to spherical aberrations and neighborhood of the cover-slip. […] Tumor cell stiffness was determined and expressed as […] per site. At least 15 cells per condition were analyzed.

4T1 tumors [5] = experiment: tumor stiffness in vivo by atomic force microscopy; parameters: species or system mouse; conditions: FIG. 5f
Description: as §1
AFM was used to measure tumor tissue stiffness in vivo. MFP-3D AFM (Asylum Research, Santa Barbara, CA) combined with a Nikon Ti inverted optical microscope (Nikon, Melville, NY) was used to optically align the probe to the cells. The probes used in this study were MCST-AUHW (Bruker, Camarillo, CA) with a nominal spring constant of 0.03 N/m. […] To eliminate the confounding effects of neighboring cells on cytoskeleton arrangement and morphology, single cells were measured.
For in vivo tumor cell stiffness detection, fresh tumor tissues were excised and prepared immediately as frozen slices. […] The deflection sensitivity was determined in fluid using glass substrates as an infinitely stiff reference material. AFM at room temperature involved recording up to 6×6 point grids (36 force-displacement curves per map) was recorded. […] Force curves were analyzed using the Oliver and Pharr method. Tumor stiffness was determined and expressed as log 10 (pascal) per site. At least 24 sites per tumor tissue were analyzed.

SMILES: CC(=O)c1ccc(O)cc1 [4-HAP, 4′-Hydroxyacetophenone]
- perforin and granzyme B-induced T47D cell death (T47D cells): rescued
- stiffening of tumor cells (tumor cells [1]): can stiffen tumor cells
- 4T1 tumor progression / tumor growth (4T1 tumors [2]; 4-HAP, tumor weights and volume, FIG. 5k-l): partially slowed down
- tumor receptivity to CTL-killing (tumor cells [3]): promote

SMILES: CC(N)(Cc1c[nH]c2ccccc12)C(=O)O (racemic) [α-MT, α-methyl-DL-tryptophan]
- levels of Myh9 and Mylk proteins in 4T1 tumors (4T1 tumors [4]; immunoblots, FIG. 5e): reduced levels
- levels of Myh9 and Mylk transcripts in 4T1 tumors (4T1 tumors [4]; real-time PCR, FIG. 5d): reduced levels
- inhibition of SLC6A14 (SLC6A14): functionally inhibits
- 4T1 cell stiffness (4T1 cells): enhanced
- 4T1 tumor cell stiffness in vivo (4T1 tumors [5]): increased
- 4T1 tumor progression / tumor growth (4T1 tumors [2]; α-MT, tumor volumes and weight, FIG. 5i-j): partially and similarly slowed down
